Reference: patent US10435399B2, “HDAC6 inhibitory heterocyclic compound” (TAKEDA PHARMACEUTICAL COMPANY LIMITED, priority 2017, dated 2019)

How the values were obtained:
HDAC6 enzyme = target: T1, HDAC6 enzyme (Homo sapiens, UniProt Q9UBN7); assay: HDAC6 enzyme inhibitory activity (HDAC-Glo I/II Assay kit); type: biochemical; details: 10 μM; wells without enzyme = 100% inhibition
T1 construct: transducing full length HDAC6 gene into Sf-9 insect cells; GST; purchased SignalChem; host or cells: Sf-9 insect cells
T1 sequence (Q9UBN7 1-1215): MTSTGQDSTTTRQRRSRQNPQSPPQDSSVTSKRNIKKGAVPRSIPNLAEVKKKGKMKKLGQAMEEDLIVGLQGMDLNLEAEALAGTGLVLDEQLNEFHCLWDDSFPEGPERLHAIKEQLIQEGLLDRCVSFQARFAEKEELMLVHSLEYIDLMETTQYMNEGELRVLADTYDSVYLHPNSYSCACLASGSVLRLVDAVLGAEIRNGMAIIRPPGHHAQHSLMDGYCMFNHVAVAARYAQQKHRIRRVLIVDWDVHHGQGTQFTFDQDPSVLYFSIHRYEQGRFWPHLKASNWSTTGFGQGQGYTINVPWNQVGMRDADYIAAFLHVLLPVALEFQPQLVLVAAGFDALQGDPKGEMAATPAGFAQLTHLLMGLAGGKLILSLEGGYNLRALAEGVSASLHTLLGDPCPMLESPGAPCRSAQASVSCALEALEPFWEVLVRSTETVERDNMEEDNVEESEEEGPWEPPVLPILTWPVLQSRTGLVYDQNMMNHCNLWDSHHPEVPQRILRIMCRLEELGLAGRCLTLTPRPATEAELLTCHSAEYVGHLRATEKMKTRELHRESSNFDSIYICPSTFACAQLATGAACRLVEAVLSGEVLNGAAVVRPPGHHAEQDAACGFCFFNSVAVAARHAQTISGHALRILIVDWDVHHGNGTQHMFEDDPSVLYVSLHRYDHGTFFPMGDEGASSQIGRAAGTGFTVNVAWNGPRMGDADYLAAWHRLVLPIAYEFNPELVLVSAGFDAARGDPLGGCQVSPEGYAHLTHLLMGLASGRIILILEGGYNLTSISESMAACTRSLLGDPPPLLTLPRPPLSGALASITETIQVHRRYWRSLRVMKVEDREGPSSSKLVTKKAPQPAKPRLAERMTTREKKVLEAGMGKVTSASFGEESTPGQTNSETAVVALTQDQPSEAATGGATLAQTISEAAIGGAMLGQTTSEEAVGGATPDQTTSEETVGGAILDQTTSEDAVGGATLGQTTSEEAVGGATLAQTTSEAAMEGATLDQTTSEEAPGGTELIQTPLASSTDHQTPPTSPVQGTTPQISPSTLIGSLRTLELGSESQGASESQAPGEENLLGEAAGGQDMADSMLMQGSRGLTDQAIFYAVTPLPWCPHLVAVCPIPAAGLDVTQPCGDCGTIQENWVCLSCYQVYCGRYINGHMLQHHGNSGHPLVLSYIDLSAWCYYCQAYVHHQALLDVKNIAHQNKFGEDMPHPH
How it was run: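 Sf-9-derived GST-purified full-length HDAC6 + cpd, 60 min RT, 24 mM Tris pH 7.5/0.6 mM glutathione/0.01% Tween-20; add HDAC-Glo substrate-developer, 20 min RT; luminescence. No-enzyme = 100% inhibition.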

[1] = system: P301S mutant human tau (4R1N) Tg mouse; assay: Cognitive improvement action in neurodegenerative disease model mouse (novel object recognition test); type: in vivo
Method: Cognitive Improvement Action in Neurodegenerative Disease Model Mouse
A drug was suspended in 0.5% methyl cellulose to prepare a suspension for administration. The suspension was repeatedly administered into six month-old male P301S mutant human tau (4R1N) Tg mouse once a day for three months, and novel object recognition test was performed by the following method. The test is comprised of memory acquisition trial of object on the first day, and memory retention trial of familiar object and novel object on the second day. Drug was administered into the mouse 1 hr before the trials on both days. For acquisition trial, The mouse was put in a test box (30 cm×30 cm×25 cm) in which two identical objects were placed, and contact frequency and contact duration with the objects for 5 min were measured under 50 lux. […] Next day, one of the objects was replaced with new object, and contact frequency and contact duration with each object for 5 min were measured. Novelty Discrimination Index (NDI) as an index of cognitive function was calculated by novel object contact […]/(novel object contact duration+familiar object contact duration)%. […] After F test for vehicle administration wild-type group and vehicle administration Tg group, the significant difference between the two groups was analyzed by Student t-test or Welch test (indicated as ** p<0.01). […]

HDAC6 inhibitory rate (%) (10 μM) (HDAC6 enzyme): 99%
Compound: O=C1c2cc(-c3nnc(C(F)F)o3)cnc2CN1[C@@H]1CCCC[C@H]1NC(=O)C(F)(F)C(F)(F)F [Example 489, N-((1R,2R)-2-(3-(5-(difluoromethyl)-1,3,4-oxadiazol-2-yl)-5-oxo-5,7-dihydro-6H-pyrrolo[3,4-b]pyridin-6-yl)cyclohexyl)-2,2,3,3,3-pentafluoropropanamide]
Novelty Discrimination Index (NDI) ([1]; 1 mg/kg once a day for three months): significant improvement in NDI was observed
Novelty Discrimination Index (NDI) ([1]; 3 mg/kg once a day for three months): significant improvement in NDI was observed
